Laboratory results taken from US20250311727A1, “SUBSTITUTED 2-AMINOAZINES AND SALTS THEREOF, AND USE THEREOF AS HERBICIDAL ACTIVE SUBSTANCES” (BAYER AKTIENGESELLSCHAFT, priority 2022, published 2025).

Tests used:
Type in all cases: in vivo
Alopecurus myosuroides [1] = assay: Post-emergence herbicidal efficacy at 80 g/ha, ALOMY; settings: rated visually after about 3 weeks vs untreated controls, 100% = plants have died
Description: (§1) Unwanted plants/weeds: • ABUTH: Abutilon theophrasti • ALOMY: Alopecurus myosuroides • AMARE: Amaranthus retroflexus • DIGSA: Digitaria sanguinalis • ECHCG: Echinochloa crus-galli • KCHSC: Kochia scoparia • LOLRI: Lolium rigidum • MATIN: Matricaria inodora • POAAN: Poa annua • POLCO: Polygonum convolvulus • SETVI: Setaria viridis • STEME: Stellaria media • VERPE: Veronica persica • VIOTR: Viola tricolor A. Post-Emergence Herbicidal Efficacy at 320 g/ha
(§2) Seeds of monocotyledonous and dicotyledonous weeds and crop plants were placed in sandy loam in plastic or organic planting pots, covered with soil and cultivated in a greenhouse under controlled growth conditions. 2 to 3 weeks after sowing, the test plants were treated at the one-leaf stage. The compounds of the invention, formulated in the form of wettable powders (WP) or as emulsion concentrates (EC), were then sprayed onto the green parts of the plants as aqueous suspension or emulsion with addition of 0.5% additive at a water application rate of 600 l/ha (converted). After the test plants had been kept in the greenhouse under optimum growth conditions for about 3 weeks, the activity of the preparations was rated visually in comparison to untreated controls. For example, 100% activity=the plants have died, 0% activity=like control plants.
(§3) Tables B1 to B11 below show the effects of selected compounds of the general formula (I) according to Table 1 on various harmful plants and an application rate corresponding to 80 g/ha, which were obtained by the experimental procedure mentioned above.

Amaranthus retroflexus [2] = assay: Pre-emergence herbicide efficacy at 320 g/ha, AMARE; settings: scored visually after about 3 weeks vs untreated controls, 100% = plants have died
Procedure, shortened: (§4)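 Compound formulated as wettable powder or emulsion concentrate is applied onto covered, sown sandy loam soil with 0.5% additive. Plants grow under greenhouse conditions, and after roughly 3 weeks weed control is rated by eye as a percentage relative to untreated pots.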

Stellaria media [3] = assay: Post-emergence herbicidal efficacy at 320 g/ha, STEME; settings: rated visually after about 3 weeks vs untreated controls, 100% = plants have died
Procedure, shortened: (§5)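 Effects are visual ratings taken about three weeks after foliar application, scaled from 0% (as untreated control) to 100% (plants died). Application was at the one-leaf stage in greenhouse-grown pots.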

Polygonum convolvulus [4] = assay: Pre-emergence herbicide efficacy at 80 g/ha, POLCO; settings: scored visually after about 3 weeks vs untreated controls, 100% = plants have died
Procedure, shortened: (§6)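 Compounds are applied to soil covering sown seeds (aqueous suspension or emulsion, 0.5% additive, 600 l/ha), before emergence. Pots stay in the greenhouse for about 3 weeks. Damage is then judged by eye as % of control, 100% meaning plant death.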

Polygonum convolvulus [5] = assay: Post-emergence herbicidal efficacy at 80 g/ha, POLCO; settings: rated visually after about 3 weeks vs untreated controls, 100% = plants have died
Description: as §1
as §2, with “plants. […]” for “plants.”

Stellaria media [6] = assay: Pre-emergence herbicide efficacy at 320 g/ha, STEME; settings: scored visually after about 3 weeks vs untreated controls, 100% = plants have died
Procedure, shortened: as §4

Veronica persica [7] = assay: Pre-emergence herbicide efficacy at 320 g/ha, VERPE; settings: scored visually after about 3 weeks vs untreated controls, 100% = plants have died
Procedure, shortened: as §4

Abutilon theophrasti [8] = assay: Post-emergence herbicidal efficacy at 80 g/ha, ABUTH; settings: rated visually after about 3 weeks vs untreated controls, 100% = plants have died
Description: as §1, §2, §3

Digitaria sanguinalis [9] = assay: Pre-emergence herbicide efficacy at 320 g/ha, DIGSA; settings: scored visually after about 3 weeks vs untreated controls, 100% = plants have died
Procedure, shortened: as §4

Amaranthus retroflexus [10] = assay: Post-emergence herbicidal efficacy at 80 g/ha, AMARE; settings: rated visually after about 3 weeks vs untreated controls, 100% = plants have died
Procedure, shortened: (§7)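 Post-emergence greenhouse test: one-leaf weeds sprayed with formulated compound (0.5% additive, 600 l/ha), visually rated about 3 weeks later against untreated controls.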

PHBPU = assay: Post-emergence herbicidal efficacy at 80 g/ha, PHBPU; settings: rated visually after about 3 weeks vs untreated controls, 100% = plants have died
Protocol: as §2, with “plants. Tables B1 to B11 below show the effects of selected compounds of the general formula (I) according to Table 1 on various harmful plants and an application rate corresponding to 80 g/ha, which were obtained by the experimental procedure mentioned above.” for “plants.”

Poa annua [11] = assay: Pre-emergence herbicide efficacy at 320 g/ha, POAAN; settings: scored visually after about 3 weeks vs untreated controls, 100% = plants have died
Procedure, shortened: as §4

Abutilon theophrasti [12] = assay: Post-emergence herbicidal efficacy at 320 g/ha, ABUTH; settings: rated visually after about 3 weeks vs untreated controls, 100% = plants have died
Procedure, shortened: as §5

Veronica persica [13] = assay: Post-emergence herbicidal efficacy at 80 g/ha, VERPE; settings: rated visually after about 3 weeks vs untreated controls, 100% = plants have died
Procedure, shortened: as §7

Kochia scoparia [14] = assay: Post-emergence herbicidal efficacy at 320 g/ha, KCHSC; settings: rated visually after about 3 weeks vs untreated controls, 100% = plants have died
Procedure, shortened: as §5

Kochia scoparia [15] = assay: Pre-emergence herbicide efficacy at 320 g/ha, KCHSC; settings: scored visually after about 3 weeks vs untreated controls, 100% = plants have died
Procedure, shortened: as §4

Veronica persica [16] = assay: Pre-emergence herbicide efficacy at 80 g/ha, VERPE
Procedure, shortened: as §6

Digitaria sanguinalis [17] = assay: Post-emergence herbicidal efficacy at 320 g/ha, DIGSA; settings: rated visually after about 3 weeks vs untreated controls, 100% = plants have died
Procedure, shortened: as §5

Veronica persica [18] = assay: Post-emergence herbicidal efficacy at 320 g/ha, VERPE; settings: rated visually after about 3 weeks vs untreated controls, 100% = plants have died
Procedure, shortened: as §5

Poa annua [19] = assay: Post-emergence herbicidal efficacy at 320 g/ha, POAAN; settings: rated visually after about 3 weeks vs untreated controls, 100% = plants have died
Procedure, shortened: as §5

Amaranthus retroflexus [20] = assay: Post-emergence herbicidal efficacy at 320 g/ha, AMARE; settings: rated visually after about 3 weeks vs untreated controls, 100% = plants have died
Procedure, shortened: as §5

Abutilon theophrasti [21] = assay: Pre-emergence herbicide efficacy at 320 g/ha, ABUTH; settings: scored visually after about 3 weeks vs untreated controls, 100% = plants have died
Procedure, shortened: as §4

Viola tricolor = assay: Pre-emergence herbicide efficacy at 80 g/ha, VIOTR
Procedure, shortened: as §6

Setaria viridis [22] = assay: Pre-emergence herbicide efficacy at 320 g/ha, SETVI; settings: scored visually after about 3 weeks vs untreated controls, 100% = plants have died
Procedure, shortened: as §4

Setaria viridis [23] = assay: Pre-emergence herbicide efficacy at 80 g/ha, SETVI
Procedure, shortened: as §6

Amaranthus retroflexus [24] = assay: Pre-emergence herbicide efficacy at 80 g/ha, AMARE; settings: scored visually after about 3 weeks vs untreated controls, 100% = plants have died
Procedure, shortened: as §6

Alopecurus myosuroides [25] = assay: Post-emergence herbicidal efficacy at 320 g/ha, ALOMY; settings: rated visually after about 3 weeks vs untreated controls, 100% = plants have died
Description: as §1
Seeds of mono- and dicotyledonous weed plants were placed in plastic pots in sandy loam soil (doubly sown with in each case one species of mono- or dicotyledonous weed plants per pot), covered with soil and cultivated in a greenhouse under controlled growth conditions. 2 to 3 weeks after sowing, the test plants were treated at the one-leaf stage. The compounds of the invention, formulated in the form of wettable powders (WP) or as emulsion concentrates (EC), were applied to the green parts of the plants as aqueous suspension or emulsion with addition of 0.5% additive at a water application rate equivalent to 600 litres per hectare. After the test plants had been kept in the greenhouse under optimum growth conditions for about 3 weeks, the activity of the preparations was rated visually in comparison to untreated controls.
For example, 100% activity=the plants have died, 0% activity=like control plants.
Tables A1 to A10 below show the effects of selected compounds of the general formula (I) according to Table 1 on various harmful plants and at an application rate corresponding to 320 g/ha, which were obtained by the trial procedure specified above.

SMILES: FC(F)c1cc(-c2ccccc2Nc2ncc(Cl)cn2)on1 [Example 1-31]
- Post-emergence efficacy at 80 g/ha against ALOMY in % (Alopecurus myosuroides [1]): 80%
- Pre-emergence efficacy at 320 g/ha against AMARE in % (Amaranthus retroflexus [2]): 100%
- Post-emergence efficacy at 320 g/ha against STEME in % (Stellaria media [3]): 100%
- Pre-emergence efficacy at 80 g/ha against POLCO in % (Polygonum convolvulus [4]): 80%
- Post-emergence efficacy at 80 g/ha against POLCO in % (Polygonum convolvulus [5]): 100%
- Pre-emergence efficacy at 320 g/ha against STEME in % (Stellaria media [6]): 100%
- Pre-emergence efficacy at 320 g/ha against VERPE in % (Veronica persica [7]): 100%
- Post-emergence efficacy at 80 g/ha against ABUTH in % (Abutilon theophrasti [8]): 80%
- Pre-emergence efficacy at 320 g/ha against DIGSA in % (Digitaria sanguinalis [9]): 100%
- Post-emergence efficacy at 80 g/ha against AMARE in % (Amaranthus retroflexus [10]): 90%
- Post-emergence efficacy at 80 g/ha against PHBPU in % (PHBPU): 80%
- Pre-emergence efficacy at 320 g/ha against POAAN in % (Poa annua [11]): 100%
- Post-emergence efficacy at 320 g/ha against ABUTH in % (Abutilon theophrasti [12]): 100%
- Post-emergence efficacy at 80 g/ha against VERPE in % (Veronica persica [13]): 90%
- Post-emergence efficacy at 320 g/ha against KCHSC in % (Kochia scoparia [14]): 100%
- Pre-emergence efficacy at 320 g/ha against KCHSC in % (Kochia scoparia [15]): 90%
- Pre-emergence efficacy against VERPE (Veronica persica [16]): 90%
- Post-emergence efficacy at 320 g/ha against DIGSA in % (Digitaria sanguinalis [17]): 100%
- Post-emergence efficacy at 320 g/ha against VERPE in % (Veronica persica [18]): 100%
- Post-emergence efficacy at 320 g/ha against POAAN in % (Poa annua [19]): 100%
- Post-emergence efficacy at 320 g/ha against AMARE in % (Amaranthus retroflexus [20]): 100%
- Pre-emergence efficacy at 320 g/ha against ABUTH in % (Abutilon theophrasti [21]): 90%
- Pre-emergence efficacy against VIOTR (Viola tricolor): 90%
- Pre-emergence efficacy at 320 g/ha against SETVI in % (Setaria viridis [22]): 100%
- Pre-emergence efficacy against SETVI (Setaria viridis [23]): 100%
- Pre-emergence efficacy at 80 g/ha against AMARE in % (Amaranthus retroflexus [24]): 100%
- Post-emergence efficacy at 320 g/ha against ALOMY in % (Alopecurus myosuroides [25]): 100%
